In patent US7947706B2, “Substituted pyrrolopyridines, compositions containing them, manufacturing process therefor and use thereof” (Sanofi-Aventis Deutschland GmbH, priority 2005, dated 2011) one finds IC50 data, which are given here for four compounds.

The target of one assay is T1, KDR (Homo sapiens, UniProt P35968).
T1 construct: The cytoplasmic domain of the human KDR enzyme; GST; made in house; host or cells: SF21 insect cells (baculovirus, pFastBac)
The assay is described as follows: KDR substrate phosphorylation test, scintillation technique. The format is biochemical. The note with it: GST-KDR cytoplasmic domain, PLCγ SH2-SH3 substrate, 33P-ATP, 1 hour at 37° C. On the procedure:
The inhibitory effect of the compounds is determined in an in vitro test of phosphorylation of substrate with the enzyme KDR via a scintillation technique (96-well plate, NEN).
The cytoplasmic domain of the human KDR enzyme was cloned in the form of a GST fusion in the pFastBac baculovirus expression vector. The protein was expressed in the SF21 cells and purified to about 60% homogeneity.
The KDR kinase activity is measured in 20 mM MOPS, 10 mM MgCl2, 10 mM MnCl2, 1 mM DTT, 2.5 mM EGTA, 10 mM b-glycerophosphate, pH=7.2, in the presence of 10 mM MgCl2, 100 μm Na3VO4, 1 mM NaF. 10 μl of the compound are added to 70 μl of kinase buffer containing 100 ng of KDR enzyme at 4° C. The reaction is initiated by adding 20 μl of solution containing 2 μg of substrate (SH2-SH3 fragment of PLCγ expressed in the form of a GST fusion protein), 2 μCi of γ^33P[ATP] and 2 μm of cold ATP. After incubation for 1 hour at 37° C., the reaction is stopped by adding 1 volume (100 μl) of 200 mM EDTA. The incubation buffer is removed, and the wells are washed three times with 300 μl of PBS. The radioactivity in each well is measured using a Top Count NXT radioactivity counter (Packard).
The background noise is determined by measuring the radioactivity in four different wells containing radioactive ATP and the substrate alone.
A total activity control is measured in four different wells containing all the reagents (γ^33P-[ATP], KDR and substrate PLCγ), but in the absence of compound.
The inhibition of the KDR activity with the compound of the invention is expressed as a percentage of inhibition of the control activity determined in the absence of compound.
Compound SU5614 (Calbiochem) (1 μM) is included in each plate as an inhibition control.

A further assay has as its target T2, Aurora A (Homo sapiens, UniProt O14965).
T2 construct: Aurora2: whole recombinant protein comprising an N-terminal histidine tail; His (N); made in house; host or cells: E. coli
T2 sequence (O14965 1-403): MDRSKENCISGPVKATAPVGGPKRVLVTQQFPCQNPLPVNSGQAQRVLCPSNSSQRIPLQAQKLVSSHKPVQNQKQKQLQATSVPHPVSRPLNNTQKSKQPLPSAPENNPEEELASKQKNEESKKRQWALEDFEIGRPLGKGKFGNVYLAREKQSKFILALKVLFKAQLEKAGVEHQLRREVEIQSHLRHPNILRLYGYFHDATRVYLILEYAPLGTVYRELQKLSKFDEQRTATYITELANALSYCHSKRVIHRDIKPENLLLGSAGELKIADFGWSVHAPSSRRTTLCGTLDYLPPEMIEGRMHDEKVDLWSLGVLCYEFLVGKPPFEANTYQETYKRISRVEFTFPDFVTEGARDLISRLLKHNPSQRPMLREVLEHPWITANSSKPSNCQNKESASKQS
Briefly: Aurora2 (Aurora-A) enzymatic test, NuMA substrate phosphorylation, radioactivity detection. Particulars: 10 nM Aurora2, 500 nM NuMA, 1 μM ATP, 30 minutes, 37° C.; read-out: IC 50 Aurora A. In kind it is biochemical. On the procedure: The inhibitory effect of compounds with respect to the kinases Aurora1 and Aurora2 is determined by means of an enzymatic test using radioactivity detection.
The kinase activity of Aurora1 and Aurora2 is evaluated via the phosphorylation of the substrate Numa-histidine in the presence of radiolabelled ATP ([^33P]ATP) using 96-well Flashplate plates in which the nickel chelate is bound to the surface of the microplate. The amount of ^33P phosphate incorporated into the NuMA substrate is proportional to the activity of the enzyme Aurora1 or Aurora2.
Aurora2: whole recombinant protein comprising an N-terminal histidine tail, was expressed in E. coli and purified to more than 82%.
NuMA (nuclear protein that combines with the mitotic apparatus): 424-amino acid fragment, expressed in E. coli, the N-terminal end of which has been labelled with histidine, and used as substrate for the two Aurora enzymes.
The microplates used are 96-well Flash-Plate plates, nickel chelate (Perkin-Elmer, model SMP107).
The products to be evaluated are incubated in a reaction volume of 100 μL per well, in the presence of 10 nM of Aurora1 or Aurora2, 500 nM of NuMA substrate in a buffer composed of 50 mM Tris/HCl (pH 7.5), 50 mM NaCl, 5 mM MgCl2 (Aurora-B) or 10 mM MgCl2 (Aurora-A) and 1 mM DTT, at 37° C.
80 μL of enzyme/substrate incubation buffer are distributed in each well, followed by 10 μL of product to be evaluated, at variable concentrations. The reaction is initiated by adding 1 μM final of ATP containing 0.2 μCi of [^33P]ATP (10 μL). After incubating for 30 minutes, the reaction is quenched by simple removal of the reaction buffer and each well is washed twice with 300 μl of Tris/HCl buffer. The radioactivity is then measured in each well using a Packard, Top-Count model scintillation machine.
The control enzymatic activity of Aurora is expressed by the number of counts per minute obtained over 30 minutes after subtracting the background noise (reaction mixture containing no enzyme). The evaluation of the various test products is expressed as a percentage of inhibition of the Aurora activity relative to the control.

T1 sequence (P35968 786-1356 limits assumed): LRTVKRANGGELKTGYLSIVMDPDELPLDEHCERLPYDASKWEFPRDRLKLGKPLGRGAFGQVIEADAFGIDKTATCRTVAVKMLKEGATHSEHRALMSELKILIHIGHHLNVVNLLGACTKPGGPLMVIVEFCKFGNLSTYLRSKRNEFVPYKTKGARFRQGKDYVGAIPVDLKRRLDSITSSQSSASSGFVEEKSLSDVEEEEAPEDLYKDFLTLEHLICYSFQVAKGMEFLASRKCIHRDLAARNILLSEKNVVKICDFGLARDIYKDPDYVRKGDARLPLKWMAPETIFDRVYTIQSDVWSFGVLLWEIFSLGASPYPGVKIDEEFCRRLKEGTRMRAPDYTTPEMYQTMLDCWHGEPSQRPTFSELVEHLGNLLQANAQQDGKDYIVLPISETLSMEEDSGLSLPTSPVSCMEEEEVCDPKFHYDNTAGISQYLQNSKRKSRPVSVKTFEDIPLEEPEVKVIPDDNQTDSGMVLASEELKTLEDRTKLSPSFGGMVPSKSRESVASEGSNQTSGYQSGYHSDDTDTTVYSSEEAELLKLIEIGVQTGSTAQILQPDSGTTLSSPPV

In the case of `NC(=O)c1[nH]c2cnccc2c1-c1ccc(NC(=O)Nc2cc(C(F)(F)F)ccc2F)cc1` [Example 1, 3-{4-[3-(2-Fluoro-5-trifluoromethylphenyl)ureido]phenyl}-1H-pyrrolo[2,3-c]pyridine-2-carboxamide], the IC50 at KDR was 29 nM; on Aurora A, 172 nM.

With `COc1ccc(C)cc1NC(=O)Nc1ccc(-c2c(C(N)=O)[nH]c3cnccc23)cc1` [Example 2, 3-{4-[3-(2-Methoxy-5-methylphenyl)ureido]phenyl}-1H-pyrrolo[2,3-c]pyridine-2-carboxamide], the IC50 was found to be 150 nM against KDR and 222 nM on Aurora A.

As for `Cc1ccc(F)c(NC(=O)Nc2ccc(-c3c(C(N)=O)[nH]c4cnccc34)cc2)c1.O=C(O)C(F)(F)F` [Example 5, 3-{4-[3-(2-Fluoro-5-methylphenyl)ureido]phenyl}-1H-pyrrolo[2,3-c]pyridine-2-carboxamide trifluoroacetate], the IC50 amounted to 258 nM against KDR and 131 nM on Aurora A.

For `NC(=O)c1[nH]c2ncccc2c1-c1ccc(NC(=O)Nc2cc(C(F)(F)F)ccc2F)cc1` [Example 7, 3-{4-[3-(2-Fluoro-5-trifluoromethylphenyl)ureido]phenyl}-1H-pyrrolo[2,3-b]pyridine-2-carboxamide], the IC50 on KDR was 34 nM; on Aurora A it was 553 nM.
